Assay [1] deals with Keratinocytes derived from newborn C57BL/6 mice skin. As to the kind of experiment: Cytokine secretion in LPS activated keratinocytes, Luminex. The format is cell-based. The note with it: peptide inhibitors, FIGS. 19 to 23. The text has this:
Resident skin cells and immunological cells (both resident and infiltrating cells) interact in the inflammatory psoriatic process by cell-cell interactions and cytokine secretion. Thus, HO/02/10 was examined for its direct effect on the secretion of pro-inflammatory, chemoattractant and immunological pathway related cytokines form both keratinocytes and immune cells such as macrophages and dendritic cells.
The results of FIGS. 17A and 17B show the effect of HO/02/10 on cytokine secretion in keratinocytes. Keratinocytes were derived from newborn C57BL/6 mice skin. The cells were incubated for 5 days in 24 wells plates. Cells were then treated with DPBS−/−, LPS (100 ng/ml), or HO/02/10 (1 μg/ml)+LPS ([…]). Medium containing secreted cytokines was collected after 48 hr and analyzed using a Luminex system.

The subject of assay [2] is IL-17A activated keratinocytes. As to the kind of experiment: Cytokine secretion in IL-17A activated keratinocytes. The format is cell-based. Conditions: peptide inhibitors, FIGS. 24 to 27.
Assay [3] has as its system TNFα activated keratinocytes. Nature of the assay: Cytokine secretion in TNFα activated keratinocytes. The format is cell-based. Conditions: peptide inhibitors, FIGS. 19 to 23.
Assay [4] relates to C57BL/6J mouse. Nature of the assay: Macrophage activation in wound, MAC-2 staining. The format is in vivo. Conditions: daily treatment, 5 days; 1, 10 and 100 micrograms per mL. The protocol:
The effect of MPDY-1 on macrophage activation was also shown by MAC-2 staining. MAC-2 is a specific marker for activated macrophages. […] A two-cm longitudinal incision was done as described above. Animals were treated daily with DPBS^−/− (Control) or MPDY-1 in the specified concentrations (n=6). After 5 days immunohistochemical staining was performed utilizing anti-MAC-2 antibodies. Bar […]. (*p(control Vs. MPDY-1 10 μg)=0.0028).

The subject of assay [5] is C57BL/6J mouse. Nature of the assay: Macrophage infiltration in wound, Iba-1 staining. The note with it: daily treatment, five days post-wounding. The format is in vivo. The protocol:
The effect of MPDY-1 on macrophage infiltration was also shown by Iba-1 staining. Iba-1 is a general marker for macrophages. […] As above, a two-cm longitudinal incision was done on the upper back of a C57BL/6J mouse. Following wounding, a sterile pad was sutured to the mouse's skin. Animals were treated daily with MPDY-1 (n=6). Five days post-wounding, when inflammatory phase reaches its peak, the mice were sacrificed, skin tissues were embedded in paraffin and immunohistochemical staining was performed utilizing anti-Iba-1 antibodies.

The star is where a group is joined. Myristoyl = CCCCCCCCCCCCCC(=O)*

For “Myristoyl-Phe-Ala-Arg-Lys-Gly-Ala-Leu-OH (Myristoyl-FARKGAL-OH; SMILES CCCCCCCCCCCCCC(=O)N[C@@H](Cc1ccccc1)C(=O)N[C@@H](C)C(=O)N[C@@H](CCCNC(=N)N)C(=O)N[C@@H](CCCCN)C(=O)NCC(=O)N[C@@H](C)C(=O)N[C@@H](CC(C)C)C(=O)O) [MPDY-1 sh]”, the “cytokine secretion from LPS activated keratinocytes” value in assay [1] is “decrease cytokine secretion”. For the same substance, the “cytokine secretion from IL-17A activated keratinocytes” value in assay [2] is reported as “decrease cytokine secretion”. The “cytokine secretion from TNFα activated keratinocytes” value in assay [3] was “decrease cytokine secretion”.
For “H-Phe-Ala-Arg-Lys-Gly-Ala-Leu-Arg-Gln-OH-acetate salt (H-FARKGALRQ-OH; also: acetate salt) [PDY-1]”, the “cytokine secretion from LPS activated keratinocytes” value in assay [1] is “decrease cytokine secretion”. Besides, the “cytokine secretion from IL-17A activated keratinocytes” value in assay [2] is “decrease cytokine secretion”. Also, in assay [3], the “cytokine secretion from TNFα activated keratinocytes” value is “decrease cytokine secretion”.
For the substance “Myristoyl-Phe-Ala-Arg-Lys-Gly-Ala-Leu-Arg-Gln-OH (Myristoyl-FARKGALRQ-OH; SMILES CCCCCCCCCCCCCC(=O)N[C@@H](Cc1ccccc1)C(=O)N[C@@H](C)C(=O)N[C@@H](CCCNC(=N)N)C(=O)N[C@@H](CCCCN)C(=O)NCC(=O)N[C@@H](C)C(=O)N[C@@H](CC(C)C)C(=O)N[C@@H](CCCNC(=N)N)C(=O)N[C@@H](CCC(N)=O)C(=O)O) [MPDY-1]”, the “cytokine secretion from LPS activated keratinocytes” value in assay [1] is listed as “decrease cytokine secretion”. The “cytokine secretion from IL-17A activated keratinocytes” value in assay [2] was “decrease cytokine secretion”. Moreover, the “activation of macrophages (MAC-2 positive cells per field)” value with C57BL/6J mouse [4] was “significantly inhibited”. Besides, the “cytokine secretion from TNFα activated keratinocytes” value in assay [3] is reported as “decrease cytokine secretion”. The “macrophage infiltration (Iba-1 positive cells per field)” value in the assay on C57BL/6J mouse [5] is “dose dependent effect”.

For the origin of these results see patent publication US20130296250A1, “METHOD FOR TREATMENT OF PSORIASIS” (priority 2011, published 2013).
